Columns and labels:
[1] = system: aggressive adherent cancer cell lines (e.g. HeLa, A431, T47D, MCF7, MDA-MB-231); details: several aggressive adherent cancer cell lines (e.g. HeLa, A431, T47D, MCF7, MDA-MB-231); cited from earlier work
[2] = system: COI1b bridged to plant protein (AXR) fused to a TetR DBD and an AD; experiment: Positive readout screen for bridging agents, death agent, 96 well plate growth (OD600), E3 ligase COI1b; type: cell-based, S. cerevisiae; details: duplicate wells, 30° C., final timepoint 84 hrs
Experimental: In yet another example, cells expressing a heterologous E3 ligase, in this case COI1b, were assayed for survival to discover bridging agents that can bridge COI1b to the bait and lead to degradation, thereby enabling cell growth (as shown in FIG. 11A). S. cerevisiae cells were modified to minimize drug efflux by deletion of drug efflux pumps and transcription factors encoding for their expression as previously described (Chinen, 2011). The target used was a plant protein (AXR) that is ubiquitinated and degraded in response to Jasmonate-isoleucine fused to a TetR DBD and an AD. Cells containing the E3 ligases and the death agents were mated to cells containing the target. The mated cells were then aliquoted into a 96 well plate at a starting OD600=0.05. Various compounds were tested in duplicate wells at a concentration gradient down from 100 uM. […] Plates were incubated at 30° C. with shaking and continuously monitored for growth using OD600 in a Cytation 1 instrument.

[3] = system: TIR1 bridged to plant protein (AXR) fused to a TetR DBD and an AD; experiment: Positive readout high throughput screen for bridging agents, death agent, 96 well plate growth (OD600), E3 ligase TIR1; type: cell-based, Saccharomyces cerevisiae; details: 10 uM, quadruplicate wells, 30° C., final timepoint 48 hrs
Experimental: In another example, cells expressing a heterologous E3 ligase, in this case TIR1, were assayed for survival to discover bridging agents that can bridge TIR1 to the bait and lead to degradation, thereby enabling cell growth (schematic shown in FIG. 10A). The target was a plant protein (AXR) that is ubiquitinated and degraded in response to Indol Acetic Acid fused to a TetR DBD and an AD. Cells containing the E3 ligases and the death agent were mated to cells containing the target. The mated cells were then aliquoted into a 96 well plate at a starting OD600=0.05. In this example, various compounds were used in quadruplicate wells at a concentration of 10 uM, and plated cells starting at OD600=0.05 (with the border wells on each side kept as negative controls). Plates were incubated at 30° C. with shaking and continuously monitored for growth using OD600 in a Cytation 1 instrument.

## Gymnopeptide A [GymA]
[1]
  IC50 values: low nanomolar range

## Gymnopeptide B [GymB]
[1]
  IC50 values: low nanomolar range

## CC[C@H]1C=C(C(=O)N[C@@]2(C(=O)O)C[C@@H]2CC)[C@H]2CCC(=O)[C@H]2C1 [coronatine]
[2]; 50 uM (wells G8/9)
  cell growth (OD600): bridging COI1b to the bait, leading to degradation: exhibited cell growth
[2]; 75 uM (wells F8/9)
  cell growth (OD600): bridging COI1b to the bait, leading to degradation: exhibited cell growth
[2]; 100 uM (wells E8/9)
  cell growth (OD600): bridging COI1b to the bait, leading to degradation: exhibited cell growth

## O=C(O)Cc1ccccc1 [PAA]
[3]
  cell growth (OD600): bridging TIR1 to the bait, leading to degradation: functional bridging agents

— patent US11306306B1, “Selective degradation of proteins” (SyntheX, Inc., priority 2019, dated 2022)
